These results are taken from patent US8664220B2, “Polycyclic compounds as lysophosphatidic acid receptor antagonists” (Amira Pharmaceuticals, Inc., priority 2009, dated 2014).

The target in test [1] is T1, human LPA1 (Homo sapiens, UniProt Q92633).
T1 construct: the full-length cDNA for human LPA1 was obtained by PCR of the reverse transcription reaction; expressed in transfected cells
Put plainly: LPA1 calcium flux assay. Type of test: cell-based. To be noted: human LPA1 expressing CHO cells, stimulated with 10 nM LPA; read-out: HLPA1 Ca Flux IC50. Put shortly: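 CHO cells stably expressing human LPA1, serum-starved overnight and loaded with Calcium 4 dye in HBSS/20 mM Hepes/0.3% fatty-acid-free HSA, 1 h at 37 °C. Compounds pre-incubated 30 min at room temperature, then 10 nM LPA added; intracellular Ca2+ flux measured and IC50 from titration curves.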

In test [2] the test system is A2058 human melanoma cells. Briefly: LPA1 chemotaxis assay. It is filed as cell-based. To be noted: LPA 100 nM, read-out: IC50, inhibition of LPA-driven chemotaxis. As for the experimental part:
Chemotaxis of the A2058 human melanoma cells was measured using the Neuroprobe ChemoTx® System plates (8 μm pore size, 5.7 mm diameter sites). The filter sites were coated with 0.001% fibronectin (Sigma) in 20 mM Hepes, pH 7.4 and allowed to dry. A2058 cells were serum-starved for 24 hours, then harvested with Cell Stripper and resuspended in DMEM containing 0.1% fatty-acid-free bovine serum albumin (BSA) to a concentration of 1×10^6/ml. Cells were mixed with an equal volume of test compound (2×) in DMEM containing 0.1% fatty-acid-free BSA and incubated at 37° C. for 15 minutes. LPA (100 nM in DMEM containing 0.1% fatty-acid-free BSA) or vehicle was added to each well of the lower chamber and 50 μl of the cell suspension/test compound mix was applied to the upper portion of the ChemoTx plate. Plates were incubated at 37° C. for three hours and then the cells removed from the upper portion by rinsing with PBS and scraping. The filter was dried then stained with HEMA 3 Staining System (Fisher Scientific). The absorbance of the filter was read at 590 nm and IC50s were determined using Symyx Assay Explorer.

SMILES strings stand for the structures.

T1 sequence (Q92633 whole entry): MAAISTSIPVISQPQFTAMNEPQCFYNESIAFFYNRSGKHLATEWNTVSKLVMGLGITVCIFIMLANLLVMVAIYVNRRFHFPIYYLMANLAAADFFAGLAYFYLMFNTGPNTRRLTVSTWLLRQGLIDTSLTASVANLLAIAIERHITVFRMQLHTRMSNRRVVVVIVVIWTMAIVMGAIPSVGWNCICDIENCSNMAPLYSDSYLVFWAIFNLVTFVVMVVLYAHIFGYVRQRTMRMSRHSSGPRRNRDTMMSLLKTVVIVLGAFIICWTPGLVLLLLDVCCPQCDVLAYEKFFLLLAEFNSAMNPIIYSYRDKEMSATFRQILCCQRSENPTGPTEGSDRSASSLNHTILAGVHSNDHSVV

Regarding `Cc1noc(-c2ccc(-c3ccc(C4(C(=O)O)CC4)cc3)cc2)c1C(O)c1cn(Cc2ccccc2)nn1` (stereo not shown) [Compound 1-25, 1-(4′-{4-[(1-Benzyl-1H-[1,2,3]triazol-4-yl)-hydroxy-methyl]-3-methyl-isoxazol-5-yl}-biphenyl-4-yl)-cyclopropanecarboxylic acid], the IC50 in test [1] was under 0.3 µM; in test [2] it was under 0.1 µM.
Take `Cc1noc(-c2ccc(-c3ccc(C4(CC(=O)O)CC4)cc3)cc2)c1NC(C)c1cc(-c2ccccc2)no1` (single isomer, unassigned) [Compound 1-44, [1-(4′-{3-Methyl-4-[1-(3-phenyl-isoxazol-5-yl)-ethylamino]-isoxazol-5-yl}-biphenyl-4-yl)-cyclopropyl]-acetic acid]: in test [1], the IC50 was under 0.3 µM.
Same read-out and setting: with `Cc1noc(-c2ccc(-c3ccc(C4(C(=O)O)CC4)cc3)cc2)c1Nc1cccc(Cc2ccc(F)cc2)n1` [Compound 1-86, 1-(4′-{4-[6-(4-Fluoro-benzyl)-pyridin-2-ylamino]-3-methyl-isoxazol-5-yl}-biphenyl-4-yl)-cyclopropanecarboxylic acid] the figure was under 0.3 µM; with `Cc1noc(-c2ccc(-c3ccc(C4(C(=O)O)CC4)cc3)cc2)c1CN1C(=O)OC[C@@H]1Cc1ccccc1` [Compound 1-12, 1-{4′-[4-((S)-4-Benzyl-2-oxo-oxazolidin-3-ylmethyl)-3-methyl-isoxazol-5-yl]-biphenyl-4-yl}-cyclopropanecarboxylic acid], over 50 µM.
Same read-out and setting: with `Cc1noc(-c2ccc(-c3ccc(C4(C(=O)O)CC4)cc3)cc2)c1Nc1cccc(OCC2CC2)n1` [Compound 1-154, 1-{4′-[4-(6-Cyclopropylmethoxy-pyridin-2-ylamino)-3-methyl-isoxazol-5-yl]-biphenyl-4-yl}-cyclopropanecarboxylic acid] the figure was under 0.3 µM; with `Cc1noc(-c2ccc(-c3ccc(C4(C(=O)O)CC4)cc3)cc2)c1Nc1ccc(-c2ccccc2)cc1` [Compound 1-75, 1-{4′-[4-(Biphenyl-4-ylamino)-3-methyl-isoxazol-5-yl]-biphenyl-4-yl}-cyclopropanecarboxylic acid], 0.3 to 1 µM; with `Cc1noc(-c2ccc(-c3ccc(C4(C(=O)O)CC4)cc3)cc2)c1C(O)c1cccc(Cc2ccccc2)n1` (stereo not shown) [Compound 1-69, 1-(4′-{4-[(6-Benzyl-pyridin-2-yl)-hydroxy-methyl]-3-methyl-isoxazol-5-yl}-biphenyl-4-yl)-cyclopropanecarboxylic acid], under 0.3 µM.
On the same count and under the same terms, with `Cc1noc(-c2ccc(-c3ccc(C4(C(=O)O)CC4)cc3)cc2)c1C1CC1C(=O)N(C)[C@H](C)c1ccccc1` (single isomer, unassigned) [Compound 1-27] the figure was 0.3 to 1 µM; with `Cc1noc(-c2ccc(-c3ccc(CC(=O)O)cc3)cc2)c1C(O)c1cn(Cc2ccc(Cl)c(Cl)c2)nn1` (stereo not shown) [Compound 1-65, [4′-(4-{[1-(3,4-Dichloro-benzyl)-1H-[1,2,3]triazol-4-yl]-hydroxy-methyl}-3-methyl-isoxazol-5-yl)-biphenyl-4-yl]-acetic acid], 1 to 50 µM.
As to `Cc1noc(-c2ccc(-c3ccc(C4(C(=O)O)CC4)cc3)cc2)c1CNc1nnc(-c2ccccc2)o1` [Compound 1-19, 1-(4′-{3-Methyl-4-[(5-phenyl-[1,3,4]oxadiazol-2-ylamino)-methyl]-isoxazol-5-yl}-biphenyl-4-yl)-cyclopropanecarboxylic acid], the IC50 in test [1] was under 0.3 µM.
For `Cc1noc(-c2ccc(-c3ccc(C4(C(=O)O)CC4)cc3)cc2)c1NC1CCN(Cc2ccccc2)CC1` [Compound 1-36, 1-{4′-[4-(1-Benzyl-piperidin-4-ylamino)-3-methyl-isoxazol-5-yl]-biphenyl-4-yl}-cyclopropanecarboxylic acid], in test [1], the IC50 fell in the range of 1 to 50 µM.
In the case of `Cc1noc(-c2ccc(-c3ccc(C4(C(=O)O)CC4)cc3)cc2)c1C1CN(Cc2ccccc2)C(=O)O1` (stereo not shown) [Compound 1-28, 1-{4′-[4-(3-Benzyl-2-oxo-oxazolidin-5-yl)-3-methyl-isoxazol-5-yl]-biphenyl-4-yl}-cyclopropanecarboxylic acid], the IC50 in test [1] is under 0.3 µM.
Same read-out and setting: with `Cc1noc(-c2ccc(-c3ccc(C4(C(=O)O)CC4)cc3)cc2)c1C(O)c1nnc(Cc2cccc(C(F)(F)F)c2)o1` (stereo not shown) [Compound 1-46, 1-[4′-(4-{Hydroxy-[5-(3-trifluoromethyl-benzyl)-[1,3,4]oxadiazol-2-yl]-methyl}-3-methyl-isoxazol-5-yl)-biphenyl-4-yl]-cyclopropanecarboxylic acid] the figure was 0.3 to 1 µM; with `Cc1noc(-c2ccc(-c3ccc(C4(C(=O)O)CC4)cc3)cc2)c1Nc1cccc(Oc2ccccc2)n1` [Compound 1-79, 1-{4′-[3-Methyl-4-(6-phenoxy-pyridin-2-ylamino)-isoxazol-5-yl]-biphenyl-4-yl}-cyclopropanecarboxylic acid], under 0.3 µM.
Regarding `Cc1noc(-c2ccc(-c3ccc(C4(C(=O)O)CC4)cc3)cc2)c1Nc1cccc(-c2cccc(C(F)(F)F)c2Cl)n1` [Compound 1-157, 1-(4′-{4-[6-(2-Chloro-3-trifluoromethyl-phenyl)-pyridin-2-ylamino]-3-methyl-isoxazol-5-yl}-biphenyl-4-yl)-cyclopropanecarboxylic acid], the IC50 in test [1] was under 0.3 µM.
Still for that read-out and setting: with `Cc1noc(-c2ccc(-c3ccc(C4(C(=O)O)CC4)cc3)cc2)c1Nc1cccc(-c2nn[nH]n2)n1` [Compound 1-149, 1-(4′-{3-Methyl-4-[6-(2H-tetrazol-5-yl)-pyridin-2-ylamino]-isoxazol-5-yl}-biphenyl-4-yl)-cyclopropanecarboxylic acid] the figure was 1 to 50 µM; with `Cc1noc(-c2ccc(-c3ccc(C4(C(=O)O)CC4)cc3)cc2)c1Nc1cccc(OCc2ccccc2)n1` [Compound 1-125, 1-{4′-[4-(6-Benzyloxy-pyridin-2-ylamino)-3-methyl-isoxazol-5-yl]-biphenyl-4-yl}-cyclopropanecarboxylic acid], under 0.3 µM; with `Cc1noc(-c2ccc(-c3ccc(C4(C(=O)O)CC4)cc3)cc2)c1CN1C(=O)O[C@@H](c2ccccc2)[C@H]1C` [Compound 1-15, 1-{4′-[3-Methyl-4-((4R,5S)-4-methyl-2-oxo-5-phenyl-oxazolidin-3-ylmethyl)-isoxazol-5-yl]-biphenyl-4-yl}-cyclopropanecarboxylic acid], 0.3 to 1 µM.
Consider `Cc1noc(-c2ccc(-c3ccc(C4(C(=O)O)CC4)cc3)cc2)c1Nc1cccc(Cc2ccccc2F)n1` [Compound 1-84, 1-(4′-{4-[6-(2-Fluoro-benzyl)-pyridin-2-ylamino]-3-methyl-isoxazol-5-yl}-biphenyl-4-yl)-cyclopropanecarboxylic acid], for which, in test [1], the IC50 was under 0.3 µM.
For `Cc1noc(-c2ccc(-c3ccc(C4(CC(=O)O)CC4)cc3)cc2)c1C(O)CCCc1ccc(Oc2ccccc2)cc1` (stereo not shown) [Compound 1-33, [1-(4′-{-4-[1-Hydroxy-4-(4-phenoxy-phenyl)-butyl]-3-methyl-isoxazol-5-yl}-biphenyl-4-yl)-cyclopropyl]-acetic acid], in test [1], the IC50 is 1 to 50 µM.
Same read-out and setting: with `Cc1noc(-c2ccc(-c3ccc(C4(C(=O)O)CC4)cc3)cc2)c1Nc1cccc(-c2cc(F)ccc2Cl)n1` [Compound 1-151, 1-(4′-{4-[6-(2-Chloro-5-fluoro-phenyl)-pyridin-2-ylamino]-3-methyl-isoxazol-5-yl}-biphenyl-4-yl)-cyclopropanecarboxylic acid] the figure was under 0.3 µM.
